Values quoted from earlier work in US20080226713A1, “Controlled Release Pharmaceutical Compositions of Tolperisone for Oral Administration” (priority 2004, published 2008).
Where two headings read alike, the source gives them in different places.

Tests used:
[1] = JP-A-53-40779
[2] = rat

Row | extent of in-vivo inversion into the other enantiomer [2] | Structure (SMILES) | pharmacological effect ([1]; listed as S-tolperisone) | pharmacological effect ([1]; listed as R-tolperisone)
1 | up to 20% | Cc1ccc(C(=O)C(C)CN2CCCCC2)cc1 (stereo not drawn) [S(+)tolperisone] | vaso- or bronchodilatory effect | 
2 |  | Cc1ccc(C(=O)C(C)CN2CCCCC2)cc1 (stereo not drawn) [R(−)tolperisone] |  | muscle-relaxing effect
